From article PMC5628579, “Potent mechanism-based sirtuin-2-selective inhibition by an in situ-generated occupant of the substrate-binding site, “selectivity pocket” and NAD^+-binding site” (Chemical Science, 2017) come the findings set out here.

Series [1] deals with neuro-2a (N2a) cells. The series can be described thus: Neurite outgrowth assay. The series is classed as cell-based, mouse. As to conditions: 72 h, vehicle 14.22 ± 2.9%.
Series [2] relates to MDA-MB-231 cells. The series can be described thus: Cell growth assay (AlamarBlue), MDA-MB-231. Type of series: cell-based, human. As to conditions: 72 h of treatment. Background: Resazurin is reduced to fluorescent resorufin, in cell work by metabolically active cells.
A short description of series [3]: HPLC stability under SIRTs assay conditions. As to conditions: buffer pH 8.0, 30 °C, 0–200 min. The series is classed as physicochemical. The procedure: HPLC stability of 36 under SIRTs assay conditions
Compound 36 (10 μL, 0.5 mM) in DMSO/buffer (50 mM Tris/HCl, pH = 8.0, 137 mM NaCl, 2.7 mM KCl, 1 mM MgCl2) was added to selected wells, followed by 40 μL of buffer (50 mM Tris/HCl, pH = 8.0, 137 mM NaCl, 2.7 mM KCl, 1 mM MgCl2). The obtained solution was incubated at 30 °C and 250 rpm for 0, 50, 100, 150, and 200 min. At the end of each incubation time, the wells were diluted with CH3CN (50 μL, HPLC grade). The entire volume (100 μL) was transferred to a Cosmospin filter H (0.45 μm) and 20 μL of the filtrate were injected in the HPLC instrument. Column:
(90%), 30–40 min (90–10%). The peak area was determined at 220 nm. […]

In series [4] the test system is H3K9Ac (SIRT1 substrate). The series can be described thus: Western blot of H3K9Ac in MDA-MB-231 cells. Type of series: cell-based, human. As to conditions: 6 h. The procedure: MCF-7 and MDA-MB-231 cells were plated in 96-well plates (initial density: 1 × 10^3 cells per well) and incubated at 37 °C. After 24 h, test compound solutions (50 μL/well) of varying concentrations in medium (DMEM and Leibovitz's L-15 for MCF-7 and MDA-MB-231 cells respectively) for were added to the cells at 37 °C under 5% CO2 in air and left to react for 72 h. Thereafter, the mixtures were treated with 10 μL of AlamarBlue® (AbD Serotec, #BUF012A), incubation was continued at 37 °C for 3 h. The fluorescence in each well was measured with an ARVOTM X3 microplate reader (λex = 540 nm; λem = 590 nm). With the obtained fluorescence readings, it was possible to calculate the percentage of cell growth.
MDA-MB-231 cells (5 × 10^5 cells/2 mL/dish) were treated for 6 h with the test compounds at the indicated concentrations in the cell culture medium, before the cells were collected and extracted with SDS buffer. The protein concentrations of the lysates were determined using a BCA protein assay.
Equivalent amounts of protein from each lysate were resolved in 5–20% SDS-polyacrylamide gels and transferred onto PVDF membranes. […]
For the differentiation study, the medium was changed to DMEM supplemented with 2% FBS. After incubation with or without 36 for 72 h, the cell morphology was examined using a microscope (Olympus CKX41) and further analyzed with the Photomeasure software (Kenis Ltd.). […]
(In general: Immunoblotting shows a protein as a band on a membrane.)

Turning to `C[C@H](NC(=O)[C@H](CCCCNC(=S)CNC(=O)c1ccccc1Nc1cccc(OCCc2ccccc2)c1)NC(=O)OCc1ccccc1)C(N)=O` [Compound 36], the “percentage of differentiated cells” value in series [1] (0.5 μM) turned out to be 23.09 ± 3.21%; in series [1] (1 μM), 25.73 ± 1.3%. In addition, the concentration for 50% growth inhibition (GI50) in series [2] was found to be 8.43 ± 0.24 µM; in series [2] (Homo sapiens, MDA-MB-231, 72 h) it was 8.3 µM. Also, the “HPLC stability under SIRTs assay conditions” value in series [3] was “stable”. The “H3K9Ac level (western blot)” value in series [4] is listed as “did not upregulate”.

What is called GI50 is the concentration at which growth is held to half of that of the control. A higher GI50 goes with lower sensitivity of the cells.
